This passage reports IC50 results from patent publication US20240000806A1, “METHODS AND MATERIALS FOR INHIBITING CB1 ACTIVITY” (University of Pittsburgh - Of the Commonwealth System of …, priority 2020, published 2024).

Chain of CB1 (CNR1) (P21554 whole entry, the tested form may be a part): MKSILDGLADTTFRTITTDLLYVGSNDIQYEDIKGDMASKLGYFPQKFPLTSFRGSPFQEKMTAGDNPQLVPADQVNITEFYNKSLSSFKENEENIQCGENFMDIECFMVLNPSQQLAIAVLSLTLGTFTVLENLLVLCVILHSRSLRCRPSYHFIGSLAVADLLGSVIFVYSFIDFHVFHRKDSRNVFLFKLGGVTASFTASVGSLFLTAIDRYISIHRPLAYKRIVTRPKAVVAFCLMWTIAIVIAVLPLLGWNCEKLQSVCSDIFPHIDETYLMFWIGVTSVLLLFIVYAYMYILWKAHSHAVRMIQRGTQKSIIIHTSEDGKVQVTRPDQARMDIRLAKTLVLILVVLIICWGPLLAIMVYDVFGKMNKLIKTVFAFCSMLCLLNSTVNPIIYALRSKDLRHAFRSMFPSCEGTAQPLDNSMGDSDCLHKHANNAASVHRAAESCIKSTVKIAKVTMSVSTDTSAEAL

In this assay the target is CB1 (CNR1) (Homo sapiens, UniProt P21554). Briefly: cAMP CNR1 Hunter cell line antagonist assay (CB1 assay). Type of assay: cell-based. The settings on record: antagonist mode, cAMP CNR1 Hunter cells, EC80 agonist; read-out: CB1 assay, Efficacy (IC50). In a few lines:
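Antagonist mode in CNR1 Hunter cells: compound preincubated 30 min at 37 °C, then EC80 agonist for 30 min at 37 °C. cAMP measured by enzyme-fragment complementation chemiluminescence after lysis (1 h) and detection (3 h, room temperature); IC50 fitted from the dose response.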
With `CC(C)CC1Oc2cc(S(=O)(=O)Nc3ccc(F)cc3Cl)c(Br)cc2NC1=O` (centres unmarked) [BC19778], the IC50 was at least 25 µM.
Under `CC1Oc2cc(S(=O)(=O)N3CCOCC3)c(Br)cc2NC1=O` (centres unmarked) [BC19217] stands at least 25 µM.
Under `CCNS(=O)(=O)c1cc(Cl)cc2c1OC(C)C(=O)N2` (centres unmarked) [BC19294] stands 1 to 25 µM; under `CCC1Oc2cc(S(=O)(=O)NCc3ccccc3)c(Br)cc2NC1=O` (centres unmarked) [BC19287], 1 to 25 µM.
Turning to `CCS(=O)(=O)c1cc2c(c(S(=O)(=O)Nc3ccc(OC)cc3)c1)OCC(=O)N2` [BC19438], the IC50 was at least 25 µM.
Under `COCCNC(=O)N1c2cc(S(=O)(=O)N3CCCC3)ccc2NC(=O)C1C` (centres unmarked) [BC19299] stands 1 to 25 µM; under `CS(=O)(=O)c1cc2c(c(S(=O)(=O)Nc3ccc(F)cc3F)c1)OCC(=O)N2` [BC19425], at least 25 µM.
Under `Cc1ccc(Cl)cc1NS(=O)(=O)c1cc2c(cc1Cl)NC(=O)CO2` [BC19162] stands under 1 µM.
Under `COc1ccc(NS(=O)(=O)c2cc(Br)cc3c2OC(C)C(=O)N3C)cc1Cl` (centres unmarked) [BC19909] stands at least 25 µM.
For `COc1ccc(NS(=O)(=O)c2cc(S(C)(=O)=O)cc3c2OCC(=O)N3)cc1Cl` [BC19429], the IC50 is at least 25 µM.
On to `CC(C)CNS(=O)(=O)c1cc(Br)cc2c1OC(C)C(=O)N2` (centres unmarked) [BC19227], for which the IC50 is at least 25 µM.
Regarding `CCS(=O)(=O)c1cc2c(c(S(=O)(=O)Nc3ccc(C#N)cc3)c1)OCC(=O)N2` [BC19548], the IC50 was at least 25 µM.
As for `O=C1CCOc2c(cc(Br)cc2S(=O)(=O)Nc2cccc(F)c2)N1` [BC19649], the IC50 was at least 25 µM.
In the case of `CC1Oc2c(cc(Cl)cc2S(=O)(=O)Nc2ccc(F)cc2F)NC1=O` (centres unmarked) [BC19710], the IC50 was at least 25 µM.
Under `COc1ccc(NS(=O)(=O)c2cc3c(cc2Br)NC(=O)C(CC(C)C)O3)cc1Cl` (centres unmarked) [BC19780] stands 1 to 25 µM.
Under `CCC1Oc2c(cc(Cl)cc2S(=O)(=O)Nc2ccc(F)cc2F)NC1=O` (centres unmarked) [BC19748] stands at least 25 µM; under `CC(C)CC1Oc2c(cc(Br)cc2S(=O)(=O)Nc2cccc(Cl)c2)NC1=O` (centres unmarked) [BC19775], at least 25 µM.
Under `Cc1ccc(NS(=O)(=O)c2cc(Br)cc3c2OC(C)C(=O)N3C)cc1F` (centres unmarked) [BC19785] stands at least 25 µM.
Turning to `CCc1cccc(NS(=O)(=O)c2cc3c(cc2Cl)NC(=O)C(C)O3)c1` (centres unmarked) [BC19711], the IC50 is at least 25 µM.
On to `CCc1cccc(NS(=O)(=O)c2cc(Br)cc3c2OC(C)C(=O)N3)c1` (centres unmarked) [BC19288], for which the IC50 lay in the range of 1 to 25 µM.
`NS(=O)(=O)c1ccc2c(c1)N1CCCC1C(=O)N2` (centres unmarked) [BC19300]: the IC50 was at least 25 µM.
As to `CC1Oc2c(cc(Br)cc2S(=O)(=O)Nc2ccc(F)cc2F)N(C)C1=O` (centres unmarked) [BC19798], the IC50 was at least 25 µM.
Under `CS(=O)(=O)c1cc2c(c(S(=O)(=O)Nc3ccc(C#N)cc3)c1)OCC(=O)N2` [BC19431] stands at least 25 µM.
Under `O=C1CCOc2c(cc(Br)cc2S(=O)(=O)Nc2ccc(OC(F)(F)F)cc2)N1` [BC19648] stands at least 25 µM; under `CCC1Oc2c(cc(Cl)cc2S(=O)(=O)Nc2ccc(OC)c(Cl)c2)NC1=O` (centres unmarked) [BC19744], at least 25 µM.
Under `CCC1Oc2cc(S(=O)(=O)NC3CCC(O)CC3)c(Br)cc2NC1=O` (centres unmarked) [BC19372] stands at least 25 µM; under `CCC1Oc2c(cc(Br)cc2S(=O)(=O)NCCc2ccc(OC(F)(F)F)cc2)NC1=O` (centres unmarked) [BC19376], 1 to 25 µM; under `CNC(=O)N1c2cc(S(=O)(=O)N3CCCC3)ccc2NC(=O)C1C` (centres unmarked) [BC19236], at least 25 µM.
Regarding `O=C1CCOc2cc(S(=O)(=O)Nc3ccc(OC(F)(F)F)cc3)c(Br)cc2N1` [BC19652], the IC50 was at least 25 µM.
Under `Cc1c(Cl)cc2c(c1S(=O)(=O)Nc1ccc(Cl)cc1)OCC(=O)N2` [BC19434] stands at least 25 µM.
Under `COc1ccc(NS(=O)(=O)c2cc(Br)cc3c2OCCC(=O)N3)cc1Cl` [BC19688] stands 1 to 25 µM; under `CCc1cccc(NS(=O)(=O)c2cc(S(=O)(=O)CC)cc3c2OCC(=O)N3)c1` [BC19439], at least 25 µM.
Under `CCC1Oc2cc(S(=O)(=O)Nc3cccc(Cl)c3)c(Br)cc2NC1=O` (centres unmarked) [BC19221] stands 1 to 25 µM; under `O=C1COc2cc(S(=O)(=O)Nc3ccc(Cl)cc3)c(Cl)cc2N1` [BC19133], under 1 µM.
With `Cc1c(Cl)cc2c(c1S(=O)(=O)Nc1ccc(F)c(F)c1)OCC(=O)N2` [BC19489], the IC50 was at least 25 µM.
Under `Cc1ccc(NS(=O)(=O)c2cc(S(C)(=O)=O)cc3c2OCC(=O)N3)cc1F` [BC19423] stands at least 25 µM.
Under `CCC1Oc2cc(S(=O)(=O)Nc3ccc(F)c(F)c3)c(Cl)cc2NC1=O` (centres unmarked) [BC19735] stands at least 25 µM; under `CCc1ccc(NS(=O)(=O)c2cc(Br)cc3c2OCC(=O)N3)cc1` [BC19179], 1 to 25 µM; under `CCC1Oc2cc(S(=O)(=O)Nc3ccc(OC(F)(F)F)cc3)c(Cl)cc2NC1=O` (centres unmarked) [BC19733], 1 to 25 µM.
Under `CC1Oc2c(cc(Br)cc2S(=O)(=O)Nc2cccc(Cl)c2)N(C)C1=O` (centres unmarked) [BC19904] stands 1 to 25 µM; under `CC1Oc2c(cc(Br)cc2S(=O)(=O)N2CCN(C)CC2)NC1=O` (centres unmarked) [BC19228], 1 to 25 µM; under `Cc1ccc(NS(=O)(=O)c2cc3c(cc2Br)NC(=O)CCO3)cc1` [BC19661], under 1 µM.
Turning to `O=C1CCOc2c(cc(Br)cc2S(=O)(=O)Nc2cccc(Cl)c2)N1` [BC19650], the IC50 was at least 25 µM.
For the compound `CCC1Oc2cc(S(=O)(=O)Nc3ccc(C(F)(F)F)cc3Cl)c(Br)cc2NC1=O` (centres unmarked) [BC19371], the half-maximal inhibitory concentration (IC50) was at least 25 µM.
For the compound `CC1Oc2cc(S(=O)(=O)NC3CCC(C(C)(C)C)CC3)c(Br)cc2NC1=O` (centres unmarked) [BC19361], the IC50 fell in the range of 1 to 25 µM.
Take `O=C1COc2c(cc(Br)cc2S(=O)(=O)NCc2ccc(F)cc2F)N1` [BC19386]: the IC50 was at least 25 µM.
Under `CS(=O)(=O)c1cc2c(c(S(=O)(=O)Nc3ccc(F)cc3Cl)c1)OCC(=O)N2` [BC19428] stands at least 25 µM; under `CC1Oc2cc(S(=O)(=O)Nc3ccc(F)cc3)c(Cl)cc2NC1=O` (centres unmarked) [BC19721], under 1 µM.
On to `CC(=O)c1cccc(NS(=O)(=O)c2cc3c(cc2C)NC(=O)CO3)c1` [BC19132], for which the IC50 was at least 25 µM.
Under `N#Cc1ccc(NS(=O)(=O)c2cc(Br)cc3c2OCCNC3=O)cc1` [BC19615] stands at least 25 µM.
Under `COc1ccc(NS(=O)(=O)c2cc(Br)cc3c2OCCNC3=O)cc1Cl` [BC19614] stands at least 25 µM.
Under `CCS(=O)(=O)c1cc2c(c(S(=O)(=O)Nc3ccc(F)cc3F)c1)OCC(=O)N2` [BC19545] stands at least 25 µM.
Regarding `CC1Oc2cc(S(=O)(=O)Nc3ccc(F)cc3Cl)c(Br)cc2NC1=O` (centres unmarked) [BC19285], the IC50 was 1 to 25 µM.
Under `Cc1ccc(NS(=O)(=O)c2cc(Cl)cc3c2OC(C)C(=O)N3)cc1` (centres unmarked) [BC19718] stands at least 25 µM; under `CS(=O)(=O)c1cc2c(c(S(=O)(=O)Nc3ccc(F)c(F)c3)c1)OCC(=O)N2` [BC19481], at least 25 µM; under `COc1ccc(NS(=O)(=O)c2cc3c(cc2Cl)NC(=O)C(C)O3)cc1` (centres unmarked) [BC19706], at least 25 µM.
Take `CCc1cccc(NS(=O)(=O)c2cc3c(cc2Cl)NC(=O)C(CC)O3)c1` (centres unmarked) [BC19749]: the IC50 lay within 1 to 25 µM.
Under `COc1ccc(NS(=O)(=O)c2cc3c(cc2Br)N(C)C(=O)C(C)O3)cc1` (centres unmarked) [BC19795] stands at least 25 µM; under `CCC1Oc2c(cc(Br)cc2S(=O)(=O)Nc2cccc(Cl)c2)NC1=O` (centres unmarked) [BC19232], at least 25 µM.
